Reference: US5892029A, “3-hydroxy-2(1H)-pyridinone chelating agents” (priority 1997, dated 1999)
“Also recorded” adds a separate entry of the source. Like-named read-outs stand apart in the source and are kept apart here.

Tests used:
[1] = Fe(III) complex formation constants and pM; assay type: binding; conditions: pH 7.4; chelator 10 and metal ion 1 μM
Source text: The new HOPO monomers display high affinity for ferric ions. For example, 1-methyl-4(1-propylcarbamoyl)-3-hydroxy-2(1H)-pyridinone (Formula 9C, backbone=n-propyl, R'=H, R1 =methyl) has overall complex binding constants on the order of 10^28.7 M-3 for Fe(III). However, because of the 3:1 stoichiometry of the bidentate monomer/Fe complex, its stability is strongly dependent on its concentration (by the 3rd power). Generally, the pM concept was used to define the concentration of unchelated metal ion at physiological pH (7.4), and at chelator and metal ion concentrations (10 and 1 μM, respectively) which are those expected in the plasma of a chelator-treated patient. […] Since the multidentate 3,2-HOPO ligands have higher pM values than their bidentate analogs, they have stronger scavenging power for iron and actinides in vivo. For example, the bidentate compound 1-methyl-4(1-propylcarbamoyl)-3-hydroxy-2(1H)-pyridinone has a pM of 19.26 for Fe(III), while the hexadentate compound TREN-Me-3,2-HOPO (Formula 12, m=1) has a pM of 26.69 for Fe(III).

[2] = Chemical and physical properties (solubility, pKa, pH, hygroscopicity); assay type: physicochemical
[3] = Promoting excretion of 237Np(V) in mice by injected ligands (Table 5); assay type: in vivo
Source text: (§1) Animal studies were completed using methods detailed in Radiation Protection Dosimetry, 1994, 53, 305: P. W. Durbin et al., "In Vivo Chelation of Am(III), Pu(IV), Np(V) and U(VI) in Mice by TREN-(Me-3,2-HOPO)"; Radiation Protection Dosimetry, 1989, 17, 351: P. W. Durbin et al., "Removal of ^238 Pu(IV) from Mice by Polycatechoylate, -Hydroxamate or -Hydroxypyridinonate Ligands"; Radiation Research, 1984, 99, 85: P. W. Durbin et al., "Specific Sequestering Agents for the Actinides . . . "; Radiation Research, 1984, 99, 106: P. W. Durbin et al., "Removal of Pu and Am from Beagles and Mice . . . "; Radiation Research, 1980, 81, 170: R. D. Lloyd et al., and P. W. Durbin et al., "Specific Sequestering Agents for the Actinides . . . ". The foregoing articles are hereby incorporated by reference.
The ^237 Np(V) was obtained from J. Bucher of the LBL Actinide Chemistry group as NpO2 Cl in 0.1M HCl. It was diluted to the desired radioactivity concentration in 0.14M NaCl and the pH was adjusted to about 4.5 with NaOH just before use.
(§2) One of the novel chelating agents of the present invention, TREN-Me-3,2-HOPO, was also tested for effectiveness in promoting excretion of ^241 AM(III), ^237 Np(V), and ^232 U(VI) by injection into mice, as follows: Mice, in groups of five, each received an intravenous injection of (a) 1100 Bq of ^241 Am(III) in 0.2 mL of citrate buffer, (b) 150 Bq of ^232 UO2 Cl2 plus 3.6 mg of ^235 UO2 Cl2 in 0.2 mL of saline, or (c) 200 Bq of ^237 NpO2 Cl ([…] of ^237 NPO2 Cl) in 0.2 mL of saline. Three to five minutes later, 30 μmol/kg of TREN-Me-3,2-HOPO was injected intraperitoneally in 0.5 mL of saline. The mice were killed 24 hours after the actinide injection, frozen, and dissected after partial thawing. The skeleton, soft tissues, and separated excreta were radioanalyzed by counting the ^241 Am gamma rays, or the alpha particles emitted by ^237 Np or ^232 U (and its ingrowing daughters). Removal of those actinides from mice by injected TREN-Me-3,2-HOPO is summarized in Table 5, which also includes data for mice similarly treated with CaNa3 -DTPA and for actinide-injected controls. […] The structure of Am(III)-TREN-Me-3,2-HOPO is considered to resemble that of the Gd(III) complexes (see Example 20). Complexation of the fraction of Np(V) that is reduced in vivo to Np(IV) is considered to resemble that of Pu(IV). Complexation of U(VI) is considered to take place through binding to UO2^2+.
(§3) ^a Ligands (30 μmol/kg) i.p. at 3 to 5 min after actinide i.v.;

[4] = Promoting excretion of 241Am(III) in mice by injected ligands (Table 5); assay type: in vivo
Source text: as §1
Radionuclides used in the animal studies came from a variety of sources. The ^238 Pu(IV) citrate and ^241 Am(III) citrate solutions were prepared for animal injection by 8- to 10-fold dilution with 0.14M NaC1 (pH 4) of concentrated stock solutions (0.08M sodium citrate buffer) that had been held in frozen storage at Lawrence Berkeley Laboratory (hereinafter LBL) for several years. [The ^238 Pu(IV) was originally obtained from D. R. Atherton at the University of Utah Radiobiology Laboratory, Salt Lake City. The ^241 Am(III) solution had been obtained many years earlier from the LBL Actinide Chemistry group.]
as §2, §3

[5] = Promoting excretion of 238Pu(IV) in mice by orally administered ligands (Table 4); assay type: in vivo; conditions: 30 μmol/kg by gavage
Source text: as §1
Radionuclides used in the animal studies came from a variety of sources. […]
The novel chelating agents of the present invention were tested for their effectiveness in promoting excretion of ^238 Pu(IV) by oral administration to mice as follows. […] The ^238 Pu(IV) in skeleton, soft tissues, and separated excreta was determined by counting the ^234 U L x-rays. […]

[6] = assay type: in vivo, mice; conditions: for body weight / plasma urea N: mean ± SD
Method: The test of acute toxicity of these novel ligands was carried out as follows. […] The ligand was dissolved in 0.5 to 1.0 ml of saline at pH 7 to 8. After a period of observation, the mice were killed, selected tissues were removed and fixed for histopathological examination,and unusual findings at autopsy were recorded.

[7] = Promoting excretion of U(VI) in mice by injected ligands (Table 5); assay type: in vivo
Source text: as §1
The ^232 U was obtained from the Isotope Products Laboratory, Burbank, Calif., and ^234,235 U was obtained as U metal from long-held LBL storage. The two U sources were combined and dissolved in 6N HNO3, dried, and redissolved in 0.1N HCl. The daughter radioactivities were removed by elution from a Dowex-50X4 column (22 cm length, 0.7 cm diameter, 1.5 mL min^-1 flow rate) with 3.2N HCl. The U fractions (previously identified by a trial run with ^234,235 U alone) were combined, dried, and redissolved in 0.14M NaCl at pH 5.5.
as §2, §3

[8] = 30 μmol/kg i.p. at 3 to 5 min after actinide i.v.
[9] = 30 μmol/kg i.p. at 3 to 5 min after actinide i.v., pooled
[10] = protocol I: 100 μmol/kg × 10 daily i.p., 11 d
[11] = protocol I: 100 μmol/kg × 10 daily i.p., 21 d
[12] = protocol II: 500 μmol/kg × 2 in 8 h i.p., 8 d

For `CCCNC(=O)c1ccn(C)c(=O)c1O` [3-hydroxy-1-methyl-4(1-propylcarbamoyl)-2(1H)-pyridinone], the “pM for Fe(III)” value [1] was 19.26 and the “solubility (in words)” value [2] was “very soluble in water as well as organic solvents”.

In the case of `Cn1ccc(C(=O)NCCN(CCNC(=O)c2ccn(C)c(=O)c2O)CCNC(=O)c2ccn(C)c(=O)c2O)c(O)c1=O` [TREN-Me-3,2-HOPO], the “reduction of Np content (in words)” value ([3]; 30 μmol/kg i.p.) is reported as “reduced the body content of all three actinides to a significantly greater degree than CaNa3 -DTPA; also recorded: the Np content of the soft tissues was significantly reduced”, the “Np(V) in liver at 24 h” value [3, 8] is reported as 3.8 ± 5.7% of injected actinide and the “Np(V) in skeleton at 24 h” value [3, 8] is reported as 34 ± 4.5% of injected actinide. For the same compound, the “Np(V) in soft tissue at 24 h” value [3, 8] was 3.1 ± 1.1% of injected actinide, the “Np(V) in whole body at 24 h” value [3, 8] was 42 ± 11% of injected actinide and the “Np(V) excreta: feces and GI contents” value [3, 9] was 17% of injected actinide. The “Np(V) excreta: urine 0-24 h” value [3, 9] was 40% of injected actinide, the “Np(V) in kidneys at 24 h” value [3, 9] was 1.0% of injected actinide and the “reduction of Am content (in words)” value ([4]; 30 μmol/kg i.p.) was “reduced the body content of all three actinides to a significantly greater degree than CaNa3 -DTPA; also recorded: the Am content of all tissues was greatly reduced”. The “Am(III) in liver at 24 h” value [4, 8] was 1.0 ± 0.6% of injected actinide, the “Am(III) in skeleton at 24 h” value [4, 8] was 8.1 ± 6% of injected actinide and the “Am(III) in soft tissue at 24 h” value [4, 8] was 1.6 ± 0.6% of injected actinide. The “Am(III) in whole body at 24 h” value [4, 8] was 11 ± 1.4% of injected actinide, the “Am(III) excreta: feces and GI contents” value [4, 9] was 8% of injected actinide and the “Am(III) excreta: urine 0-24 h” value [4, 9] was 51% of injected actinide. The “Am(III) in kidneys at 24 h” value [4, 9] was 0.2% of injected actinide, the “effectiveness of Pu removal, oral (in words)” value [5] was “the most effective both (by oral and injection) cases” and the “pM for Fe(III)” value [1] was 26.69. The body weight [6, 10] was 102 ± 1 percent control, the “plasma urea N” value [6, 10] was 112 ± 10 percent control and the no. of survivors ([6]; protocol I: 100 μmol/kg × 10 daily i.p., 11 d, of 5 mice) was 5. The body weight [6, 11] was 106 ± 4 percent control, the “plasma urea N” value [6, 11] was 120 ± 9 percent control and the no. of survivors ([6]; protocol I: 100 μmol/kg × 10 daily i.p., 21 d, of 5 mice) was 5. The body weight [6, 12] was 101 ± 4 percent control, the “plasma urea N” value [6, 12] was 119 ± 15 percent control and the no. of survivors ([6]; protocol II: 500 μmol/kg × 2 in 8 h i.p., 8 d, of 19 (TREN) or 10 (H(2,2)) mice) was 19. The “reduction of U content (in words)” value ([7]; 30 μmol/kg i.p.) was “reduced the body content of all three actinides to a significantly greater degree than CaNa3 -DTPA; also recorded: more than one-half of the U burden in the kidneys was removed”, the “U(VI) in kidneys at 24 h” value [7, 8] was 1.6 ± 0.3% of injected actinide and the “U(VI) in liver at 24 h” value [7, 8] was 0.6 ± 0.3% of injected actinide. For the same compound, the “U(VI) in skeleton at 24 h” value [7, 8] was 16 ± 2.4% of injected actinide, the “U(VI) in soft tissue at 24 h” value [7, 8] was 1.6 ± 0.3% of injected actinide and the “U(VI) in whole body at 24 h” value [7, 8] was 9.4 ± 6.0% of injected actinide. The “U(VI) excreta: feces and GI contents” value [7, 9] was 2.3% of injected actinide and the “U(VI) excreta: urine 0-24 h” value [7, 9] was 70% of injected actinide.
